{"source": "patent US5827821A", "about": "“Conformationally stabilized cell adhesion peptides” (The Burnham Institute, priority 1992, dated 1998)", "key": {"[1]": {"system": "attachment of normal rat kidney cells to vitronectin", "experiment": "Cell adhesion assay: inhibition of attachment of normal rat kidney cells to vitronectin", "format": "cell-based", "details": "vitronectin-coated wells, peptide 0 to 10.0 mM, FIG. 2", "protocol": "(§1) Fibronectin and vitronectin were purified from human plasma according to the methods of Ruoslahti et al., (1982) Meth. Enz. 82:803; and Hayman et al., (1983) PNAS 80:4003, respectively, both of which are incorporated herein by reference. The adhesion of normal rat kidney cells to fibronectin and vitronectin was assayed as described in Ruoslahti et al., Meth. Enz. supra. Briefly, 0.1 ml solution of fibronectin or vitronectin at a concentration of 12 μg/ml in 0.1M PBS was placed in each well of 96-well plastic microtiter plates and left for 2 hours at room temperature. The unattached protein was removed by washing three times with PBS.\n(§2) One day before the assay, a confluent culture of normal rat kidney cells was split 1:2 using standard tissue culture trypsin. The cells were washed three times with PBS, pH 7.2. […] Before the last centrifugation, a sample was taken and cell numbers and viability by trypan blue exclusion are determined. […]\n(§3) The unattached cells were removed simply by removing the medium and washing the wells. […] The cells were then fixed with 3% paraformaldehyde in PBS and stained with 1% toluidine blue, paraformaldehyde in PBS, and attached cells counted. Their number was determined using a cell counter that is capable of counting cells attached to a surface (Dynatech Laboratories, Alexandria, Va.). […]"}, "[2]": {"system": "attachment of normal rat kidney cells to fibronectin", "experiment": "Cell adhesion assay: inhibition of attachment of normal rat kidney cells to fibronectin", "format": "cell-based", "details": "fibronectin-coated wells, peptide 0 to 10.0 mM, FIG. 2", "protocol": "as §1, §2, §3"}}, "note": "Where no end group is shown, it is not given here. [ ]: non-standard residue; d: D form. Pen = CC(C)(S)[C@H](N)C(=O)O"}
{"substance": "G[Pen]GRGDSPC (cysteine pairing not given here) [linear peptide]", "values": [{"measurement": "inhibition of attachment to vitronectin", "setting": "[1]", "result": "inhibited attachment of cells to both substrates at relatively similar concentrations"}, {"measurement": "inhibition of attachment to fibronectin", "setting": "[2]", "result": "inhibited attachment of cells to both substrates at relatively similar concentrations"}]}
